The record followed here is ChEMBL document CHEMBL4342455, “Benwamycins A-G, Trialkyl-Substituted Benzene Derivatives from a Soil-Derived Streptomyces” (J Nat Prod, 2020).

SMILES strings stand for the structures. The source made the active and inactive calls. The rule behind the calls is not given here.

One data set deals with T-cell. Briefly: Immunosuppressive activity in anti-CD3/anti-CD28-stimulated human T cells assessed as reduction in cell viability after 96 hrs by CFSE dye based flow cytometric analysis. It counts as functional.
Data set [1] deals with 3T3-L1. The experiment in a line: Induction of glucose uptake in mature mouse 3T3L1 adipocytes assessed as [3H]2-deoxy-D-glucose uptake at 25 uM preincubated for 24 hrs followed by [3H]2-deoxy-D-glucose additon and measured after 10 mins by scintillation counting method relative to control. It counts as functional.
Data set [2] can be described thus: Cytotoxicity against human naive T cells assessed as reduction in cell viability after 96 hrs by flow cytometric analysis. Type of data set: cell-based.
Data set [3] relates to 3T3-L1. The experiment in a line: Induction of glucose uptake in mature mouse 3T3L1 adipocytes assessed as [3H]2-deoxy-D-glucose uptake at 10 uM preincubated for 24 hrs followed by [3H]2-deoxy-D-glucose additon and measured after 10 mins by scintillation counting method relative to control. Type of data set: functional.

In the case of `CC(=O)[C@@H](C)[C@H](O)[C@@H](C)c1ccc(C)cc1/C=C/C(=O)O`, the outcome in the data set with T-cell and in the data set on 3T3-L1 [1] was inactive.

Turning to `CCC(=O)O[C@@H]([C@H](C)C(C)=O)[C@@H](C)c1ccc(CO)cc1/C=C/CO`, the outcome with T-cell and in the data set on 3T3-L1 [1] was inactive.

By IC50 is commonly meant the midpoint of a concentration-inhibition curve. For orientation: CC50 means the concentration at which the toxic effect on the cells reaches its halfway point. Regarding `CCC1=CC(=O)[C@@H](C)[C@@H]([C@@H](C)c2ccc(C)cc2/C=C/CO)O1`, the IC50 with T-cell amounted to 12.5 µM. Moreover, the cytotoxic concentration (CC50) at 96 h in data set [2] was > 80 µM. In the data set on 3T3-L1 [1], the Activity is 21.1%.

In the case of `CC(=O)[C@@H](C)[C@H](O)[C@@H](C)c1ccc(CO)cc1/C=C/CO`, the outcome in the data set on T-cell and in the data set with 3T3-L1 [1] was inactive.

`CC(=O)[C@@H](C)[C@H](O)[C@@H](C)c1ccc(C)cc1/C=C/CO`: the result in the data set on T-cell and in the data set on 3T3-L1 [1] was inactive.

Turning to `CCC1=CC(=O)[C@@H](C)[C@@H]([C@@H](C)c2ccc(CO)cc2/C=C/CO)O1`, the result with T-cell and with 3T3-L1 [1] was inactive.

On to `C[C@@H]([C@H](O)[C@@H](C)c1ccc(CO)cc1/C=C/CO)[C@H](C)O`, for which the result in the data set on T-cell and with 3T3-L1 [1] was inactive.

In the case of `CCC(=O)O[C@@H]([C@H](C)C(C)=O)[C@@H](C)c1ccc(C)cc1/C=C/CO`, the outcome with T-cell and with 3T3-L1 [1] was inactive.

For `COc1ccc2cc3[n+](cc2c1OC)CCc1cc2c(cc1-3)OCO2` [BERBERINE], the Activity in the data set on 3T3-L1 [3] was 25.5%.

Regarding `CC(=O)OCc1ccc([C@H](C)[C@@H](O)[C@H](C)C(C)=O)c(/C=C/CO)c1`, the outcome in the data set on T-cell was inactive. Besides, the Activity with 3T3-L1 [1] stood at 28.4%.

Turning to `Cc1ccc([C@H](C)[C@@H](O)[C@H](C)[C@H](C)O)c(/C=C/CO)c1`, the half-inhibitory concentration (IC50) with T-cell was determined as 14.3 µM. The half-maximal cytotoxic concentration (CC50) at 96 h in data set [2] is > 80 µM. In the data set on 3T3-L1 [1], the outcome was inactive.
